Laboratory results taken from patent US7598255B2 (Janssen Pharmaceutica NV, priority 2005, dated 2009).
Structures can show the parent of a compound that is named as a salt.

Experiments:
[1] = target: T1, human recombinant 5-HT2C receptor (Homo sapiens, UniProt P28335); experiment: Affinity for 5HT2 receptor binding sites, h5-HT2C, [3H]mesulergine; conditions: CHO h5-HT2C membranes
T1 sequence (P28335 33-458): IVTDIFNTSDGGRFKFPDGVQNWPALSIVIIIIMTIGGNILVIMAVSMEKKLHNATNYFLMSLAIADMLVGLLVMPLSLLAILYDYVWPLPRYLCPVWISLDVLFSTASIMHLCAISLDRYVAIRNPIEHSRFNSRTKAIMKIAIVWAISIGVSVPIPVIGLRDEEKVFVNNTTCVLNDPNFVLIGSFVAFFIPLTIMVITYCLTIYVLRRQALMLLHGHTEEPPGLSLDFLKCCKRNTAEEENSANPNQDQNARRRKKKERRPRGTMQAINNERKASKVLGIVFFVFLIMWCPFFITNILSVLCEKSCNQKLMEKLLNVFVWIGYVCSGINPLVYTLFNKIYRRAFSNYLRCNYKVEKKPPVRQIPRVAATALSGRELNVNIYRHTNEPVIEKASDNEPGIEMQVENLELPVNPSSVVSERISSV
Procedure: (§1) Sigmoidal inhibition curves were generated and fitted by nonlinear regression analysis (GraphPad Prism).
(§2) Receptor binding was performed using the human recombinant 5-HT2A (GB: X57830), 5-HT2B (GB: Z36748) and 5-HT2C (GB: M81778) receptors. The affinity of the compounds for the 3 different human 5-HT2 receptor subtypes was evaluated by competitive radioligand binding assays using [^3H]ketanserin (h5-HT2A) or [^3H]mesulergine (h5-HT2B and h5-HT2C). The assays were performed on membranes prepared from NIH3T3 stably transfected with h5-HT2A or CHO stably transfected with h5-HT2B and h5-HT2C.

[2] = target: 5-HT2A receptor (Homo sapiens, UniProt P28223); experiment: Affinity for 5-HT2A receptor binding sites, radioligand binding with [3H]ketanserin; conditions: read-out: Ki 5-HT2A, rat cortex membranes (assay 2) or NIH3T3 h5-HT2A membranes (assay 3), table does not say which
Procedure: as §1
The affinity of the compounds for the rat 5-HT2A receptor was evaluated by competitive radioligand binding assay using [^3H]ketanserine as the radioligand. […] Brain tissue (rat cortex) was homogenized in 20 volumes per wet weight tissue of Tris-HCl buffer (50 mM, pH 7.4). The total membrane fraction was collected by centrifugation and washed by subsequent centrifugation runs (25 min at 25,000 g at 4° C.). Membranes were re-suspended in Tris-HCl buffer (50 mM, pH 7.4) containing 1 nM [^3H]ketanserin. Non-specific binding was estimated in the presence of 10 μM risperidone. The incubation was terminated by rapid filtration over Whatman GF/B filters pre-soaked in 0.1% polyethylenimine, and one washing step with 1 mL ice-cold Tris-HCl buffer, pH 7.4.

[3] = target: rat 5-HT7a receptor (Rattus norvegicus, UniProt P32305); experiment: Affinity for 5-HT7 receptor binding sites, radioligand binding with [3H]5-CT; conditions: membranes of HEK-293 cells with rat 5-HT7a, 1 nM [3H]5-CT
Chain of rat 5-HT7a receptor (P32305 whole entry): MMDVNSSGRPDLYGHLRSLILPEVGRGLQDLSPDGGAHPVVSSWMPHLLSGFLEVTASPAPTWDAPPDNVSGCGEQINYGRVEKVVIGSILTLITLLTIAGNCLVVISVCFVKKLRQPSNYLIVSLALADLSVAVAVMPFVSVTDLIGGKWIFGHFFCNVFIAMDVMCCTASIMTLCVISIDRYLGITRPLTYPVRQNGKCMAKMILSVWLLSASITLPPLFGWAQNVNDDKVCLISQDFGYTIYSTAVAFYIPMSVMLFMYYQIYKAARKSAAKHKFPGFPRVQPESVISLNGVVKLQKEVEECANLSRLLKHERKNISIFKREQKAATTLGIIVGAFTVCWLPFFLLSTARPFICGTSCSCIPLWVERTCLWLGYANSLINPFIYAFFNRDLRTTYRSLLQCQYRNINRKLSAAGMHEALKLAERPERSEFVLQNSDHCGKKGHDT
Procedure: The affinity of the compounds described in this invention for the 5-HT7 receptor binding site was evaluated by single competition radioligand binding assay. The assay was performed on membranes prepared from HEK-293 cells that had been subjected to stable transfection with the rat 5-HT7a receptor (GB: NM022938). Cells were scraped from the culture plates, suspended in Tris-HCl 50 mM pH 7.5 and collected through centrifugation (1000 rpm for 5 min). The cell pellets were homogenized (Polytron, 15 s, setting 5) in 50 mM Tris-HCl (pH 7.5), 5 mM EDTA. Following centrifugation (15,000 rpm for 25 min), membranes (135 μg protein/mL) were resuspended in the same buffer and incubated for 60 min at RT with 1 nM [^3H]5-CT in the presence of increasing concentration of test compounds. Nonspecific binding was defined in the presence of 10 μM 5-HT. Incubation was stopped by rapid filtration using the cell harvester (Packard). Radioactivity was counted in a TopCount-NXT (Packard). Experiments were conducted in triplicate.

[4] = target: 5-HT2B receptor (Homo sapiens, UniProt P41595); experiment: Affinity for 5HT2 receptor binding sites, h5-HT2B, [3H]mesulergine; conditions: CHO h5-HT2B membranes
Chain of 5-HT2B receptor (P41595 whole entry): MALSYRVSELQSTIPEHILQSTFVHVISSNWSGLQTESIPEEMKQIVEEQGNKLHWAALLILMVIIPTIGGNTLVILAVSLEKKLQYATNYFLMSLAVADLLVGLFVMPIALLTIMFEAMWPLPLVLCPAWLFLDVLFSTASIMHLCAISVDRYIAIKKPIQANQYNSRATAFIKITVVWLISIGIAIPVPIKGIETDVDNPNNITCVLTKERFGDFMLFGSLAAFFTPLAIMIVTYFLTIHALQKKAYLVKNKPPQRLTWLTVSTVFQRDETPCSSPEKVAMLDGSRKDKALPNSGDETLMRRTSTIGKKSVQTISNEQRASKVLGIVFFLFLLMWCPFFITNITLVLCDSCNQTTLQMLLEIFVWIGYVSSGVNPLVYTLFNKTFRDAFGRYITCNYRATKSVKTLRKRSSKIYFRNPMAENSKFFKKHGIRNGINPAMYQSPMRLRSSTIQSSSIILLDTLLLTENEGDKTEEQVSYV
Procedure: as §1, §2

| Structure (SMILES) | Ki [1] [nM] | Ki [2] [nM] | Ki [3] [nM] | Ki [4] [nM] |
| --- | --- | --- | --- | --- |
| CC(C)Cc1nc2c(c(-c3ccc(C#N)cc3)n1)CNCC2 [Example 40, 4-(2-Isobutyl-5,6,7,8-tetrahydro-pyrido[4,3-d]pyrimidin-4-yl)-benzonitrile] | > 10000 | 500 | > 10000 | > 10000 |
| CC(C)c1nc(-c2ccc(F)cc2)c2c(n1)C(C)CN(Cc1ccccc1)C2 (centres unmarked) [Example 92, 6-Benzyl-4-(4-fluoro-phenyl)-2-isopropyl-8-methyl-5,6,7,8-tetrahydro-pyrido[4,3-d]pyrimidine] | > 10000 | 300 | > 10000 | > 10000 |
| Fc1ccc(-c2nc(-c3ccccc3)nc3c2CNCC3)cc1 [Example 117, 4-(4-Fluoro-phenyl)-2-phenyl-5,6,7,8-tetrahydro-pyrido[4,3-d]pyrimidine] | 4000 | 50 | > 10000 | 1000 |
| FC(F)(F)c1ccc(-c2nc(Cc3ccccc3)nc3c2CNCC3)cc1 [Example 9, 2-Benzyl-4-(4-trifluoromethyl-phenyl)-5,6,7,8-tetrahydro-pyrido[4,3-d]pyrimidine] | 7500 | 1350 | 5000 | > 10000 |
| CC(C)c1nc2c(c(-c3ccccc3)n1)CNCC2 [Example 31, 2-Isopropyl-4-phenyl-5,6,7,8-tetrahydro-pyrido[4,3-d]pyrimidine] | > 10000 | 70 | > 10000 | 2000 |
| CC(C)c1nc2c(c(-c3ccc(F)cc3F)n1)CNCC2 [Example 27, 4-(2,4-Difluoro-phenyl)-2-isopropyl-5,6,7,8-tetrahydro-pyrido[4,3-d]pyrimidine] | > 10000 | 60 | > 10000 | > 10000 |
| CC(C)c1nc2c(c(-c3ccccc3)n1)CCNC2 [Example 81, 2-Isopropyl-4-phenyl-5,6,7,8-tetrahydro-pyrido[3,4-d]pyrimidine] | 6000 | 25 | > 10000 | 450 |
| CC(C)c1nc(-c2ccsc2)c2c(n1)C(C)CNC2 (centres unmarked) [Example 105, 2-Isopropyl-8-methyl-4-thiophen-3-yl-5,6,7,8-tetrahydro-pyrido[4,3-d]pyrimidine] | 400 | 40 | > 10000 | 100 |
| CCC(C)c1nc2c(c(-c3ccc(OC(F)(F)F)cc3)n1)CNCC2 (centres unmarked) [Example 45, 2-sec-Butyl-4-(4-trifluoromethoxy-phenyl)-5,6,7,8-tetrahydro-pyrido[4,3-d]pyrimidine] | > 10000 | > 10000 | > 10000 | > 10000 |
| CC(C)Cc1nc2c(c(-c3cccs3)n1)CNCC2 [Example 35, 2-Isobutyl-4-thiophen-2-yl-5,6,7,8-tetrahydro-pyrido[4,3-d]pyrimidine] | 2000 | 70 | 500 | 400 |
| CC(C)c1nc2c(c(-c3ccccc3)n1)CCCNC2 [Example 68, 2-Isopropyl-4-phenyl-6,7,8,9-tetrahydro-5H-pyrimido[4,5-c]azepine] | 7100 | 80 | > 10000 | 660 |
| Cc1ccc(-c2nc(CC(C)C)nc3c2CNCC3)cc1 [Example 38, 2-Isobutyl-4-p-tolyl-5,6,7,8-tetrahydro-pyrido[4,3-d]pyrimidine] | 800 | 40 | > 10000 | 50 |
| CC(C)c1nc2c(c(-c3ccsc3)n1)CCNC2 [Example 89, 2-Isopropyl-4-thiophen-3-yl-5,6,7,8-tetrahydro-pyrido[3,4-d]pyrimidine hydrochloride] | 1400 | 25 | > 10000 | 40 |
| CC(C)Cc1nc2c(c(-c3ccsc3)n1)CNCC2 [Example 34, 2-Isobutyl-4-thiophen-3-yl-5,6,7,8-tetrahydro-pyrido[4,3-d]pyrimidine] | 1000 | 150 | > 10000 | 400 |
| Cc1nc2c(c(-c3cccc(Cl)c3)n1)CCNCC2 [Example 53, 4-(3-Chloro-phenyl)-2-methyl-6,7,8,9-tetrahydro-5H-pyrimido[4,5-d]azepine] | > 10000 | 1000 | > 10000 | > 10000 |
| COc1ccc(-c2nc(Cc3ccccc3)nc3c2CCN(Cc2ccccc2)C3)cc1 [Example 73, 2,7-Dibenzyl-4-(4-methoxy-phenyl)-5,6,7,8-tetrahydro-pyrido[3,4-d]pyrimidine] | > 10000 | 140 | > 10000 | > 10000 |
| Cc1cc(-c2nc(CC(C)C)nc3c2CNCC3)ccc1F [Example 39, 4-(4-Fluoro-3-methyl-phenyl)-2-isobutyl-5,6,7,8-tetrahydro-pyrido[4,3-d]pyrimidine] | > 10000 | 150 | > 10000 | > 10000 |
| CCC(C)c1nc2c(c(-c3ccc(OC)cc3)n1)CNCC2 (centres unmarked) [Example 44, 2-sec-Butyl-4-(4-methoxy-phenyl)-5,6,7,8-tetrahydro-pyrido[4,3-d]pyrimidine] | 1000 | 400 | > 10000 | 500 |
| COc1ccc(-c2nc(CC(C)C)nc3c2CNCC3)cc1 [Example 41, 2-Isobutyl-4-(4-methoxy-phenyl)-5,6,7,8-tetrahydro-pyrido[4,3-d]pyrimidine] | 5000 | 2000 | > 10000 | 5000 |
| Cc1cc(-c2nc(C(C)C)nc3c2CCNC3)cs1 [Example 88, 2-Isopropyl-4-(5-methyl-thiophen-3-yl)-5,6,7,8-tetrahydro-pyrido[3,4-d]pyrimidine hydrochloride] | 185 | 13 | 550 | 60 |
| CC(C)c1nc2c(c(-c3ccsc3)n1)CCN(Cc1ccccc1)C2 [Example 87, 7-Benzyl-2-isopropyl-4-thiophen-3-yl-5,6,7,8-tetrahydro-pyrido[3,4-d]pyrimidine hydrochloride] | > 10000 | 600 | > 10000 | 2000 |
| Fc1ccc(-c2nc(Cc3ccccc3)nc3c2CNCC3)cc1 [Example 2, 2-Benzyl-4-(4-fluoro-phenyl)-5,6,7,8-tetrahydro-pyrido[4,3-d]pyrimidine] | 510 | 20 | > 10000 | 5000 |
| COc1ccc(-c2nc(Cc3ccccc3)nc3c2CCNC3)cc1 [Example 79, 2-Benzyl-4-(4-methoxy-phenyl)-5,6,7,8-tetrahydro-pyrido[3,4-d]pyrimidine] | 900 | 115 | 300 | 435 |
| COc1ccc(-c2nc(C(C)C)nc3c2CNCC3)cc1 [Example 30, 2-Isopropyl-4-(4-methoxy-phenyl)-5,6,7,8-tetrahydro-pyrido[4,3-d]pyrimidine] | 2500 | 800 | > 10000 | 1000 |
| CC(C)c1nc(-c2ccccc2)c2c(n1)C(C)CNC2 (centres unmarked) [Example 103, 2-Isopropyl-8-methyl-4-phenyl-5,6,7,8-tetrahydro-pyrido[4,3-d]pyrimidine] | 1000 | 40 | > 10000 | 1000 |
| CC(C)c1nc2c(c(-c3ccc(F)c(F)c3)n1)CNCC2 [Example 24, 4-(3,4-Difluoro-phenyl)-2-isopropyl-5,6,7,8-tetrahydro-pyrido[4,3-d]pyrimidine hydrochloride] | > 10000 | 240 | > 10000 | > 10000 |
| CC(C)Cc1nc2c(c(-c3ccc(F)cc3)n1)CNCC2 [Example 37, 4-(4-Fluoro-phenyl)-2-isobutyl-5,6,7,8-tetrahydro-pyrido[4,3-d]pyrimidine] | 1000 | – | > 10000 | 400 |
| CNCCc1cc(-c2ccc(F)cc2)nc(C(C)(C)C)n1 [Example 166, {2-[2-tert-Butyl-6-(4-fluoro-phenyl)-pyrimidin-4-yl]-ethyl}-methyl-amine] | 170 | 11 | – | 18 |
| Fc1ccc(-c2nc(C3CC3)nc3c2CNCC3)cc1 [Example 7, 2-Cyclopropyl-4-(4-fluoro-phenyl)-5,6,7,8-tetrahydro-pyrido[4,3-d]pyrimidine] | 900 | 25 | > 10000 | – |
